The test system of one series is DU145. Nature of the series: Intrinsic toxicity, MTT survival. The format is cell-based. The conditions noted are these: Homo sapiens, DU-145, 48 hours, ± standard error. The method, then:
(§1) Percent survival determined by MTT assay calculated relative to cells treated with equal volume DMSO vehicle and represent the mean±SEM from 2-4 separate studies, each study performed in triplicate wells.
The intrinsic in vitro toxicities of identified compounds were evaluated to determine their potential therapeutic window. This was assessed in a noncancerous cell line (HFL1) and the human prostate cancer cell lines DU145 and the MDR sub-line DU145TxR.

The test system of another series is HFL1. Kind of series: Intrinsic toxicity, MTT survival. The format is cell-based. The conditions noted are these: Homo sapiens, 48 hours, ± standard error. The method, then:
as §1
The intrinsic in vitro toxicities of identified compounds were evaluated to determine their potential therapeutic window. This was assessed in a noncancerous cell line (HFL1) and the human prostate cancer cell lines DU145 and the MDR sub-line DU145TxR. The potential toxicity of the compounds were assessed at concentrations that centered around 25 μM.

Series [1] deals with DU145TXR. Nature of the series: Potentiation of 500 nM paclitaxel cytotoxicity (MTT). The format is cell-based, human. As to the method: FIGS. 4A and 4B show the in silico identified P-gp inhibitors potentiate the cytotoxic effects of paclitaxel in the MDR human prostate cancer cell line DU145TxR. […] Values represent the mean±SEM of at least two separate experiments performed in triplicate.
A range of experimental inhibitor concentrations was added in the presence of 500 nM paclitaxel and the cell viability was assessed using the MTT assay.
In order to compare the efficacy of inhibitors, the potentiation concentration of inhibitor resulting in 50% reduction in cell viability, PC50, in the presence of 500 nM paclitaxel was calculated from the data in FIG. 4A.

Another series concerns the target P-gp (Homo sapiens, UniProt P08183). As to the method:
Stimulation of basal ATPase by 29-variants was used as an indicator that a compound may be a P-gp transport substrate. Effects on stimulated P-gp ATPase activity indicated whether a compound directly interfered with ATP usage by the protein (***, p<0.001; **, p<0.01; *, p<0.1; NS, not significant). Quantitative cellular accumulation of 29-variants was performed using LC-MS/MS and is presented as a ratio of the cellular amounts of 29-variants in the presence of P-gp inhibitor, tariquidar, divided by amounts accumulated in its absence. […] Binding of an ATP analog, SL-ATP, to P-gp was used to determine whether ATP binding to P-gp was affected by the 29-variants. Values+/−standard deviations are shown for at least three different P-gp preparations and three independent SL-ATP titration experiments. The values for SL-ATP binding in the presence of 29 were taken directly from Brewer et al. (2014).
Intracellular accumulation of compound 29 variants. Cell accumulation assays for each of the 29 variants were performed as in reference^28 to more directly assess whether the compounds were indeed transport substrates for P-gp.

Series [2] relates to DU145TXR. Nature of the series: Dose dependent sensitization of MDR cell line to paclitaxel (MTT). Conditions: 25 μM compound. The format is cell-based, human. The method, then:
FIGS. 6A to 6C show the dose dependent sensitization of MDR prostate cancer cell line DU145TxR. […] For reference, the DU145TxR (closed circle) and DU145 (open circle) incubated with paclitaxel only are also included. Values are mean±SEM from at least 2 separate experiments performed in triplicate wells. The data were normalized to the intrinsic toxicities as determined in studies from FIGS. 5A to 5C of each of the compounds for each of the corresponding concentrations.
Dose Dependent Sensitization of MDR Prostate Cancer Cell Line: To determine the degree to which the MDR prostate cancer cell line DU145TxR could be sensitized to paclitaxel the inventors determined cell survival at increasing concentrations of paclitaxel in the presence of three concentrations of P-gp inhibitors. FIGS. 6A, 6B and 6C show the survival of DU145TxR at increasing concentration of paclitaxel in the presence of 5 μM, 10 μM and 25 μM of the experimental compounds, respectively. The open circles represent the parental DU145 cell line in the presence of paclitaxel without addition of any inhibitor compound. The closed circles represent the survival of the multidrug resistant DU145TxR in the presence of paclitaxel alone. […] At that concentration over 10-fold increase in paclitaxel sensitivity in DU145TxR is observed compared to DU145TxR without P-gp inhibitors. Doubling the concentration of the compounds to 10 μM approximately doubled the DU145TxR sensitivity to paclitaxel.

For series [3], the target named is Normal Human MDR1 P-glycoprotein (Homo sapiens, UniProt P08183). Kind of series: ATP hydrolysis by human P-gp assembled into membrane nanodiscs. The series is classed as biochemical. Conditions: human MDR1 P-gp in nanodiscs.
The test system of series [4] is DU145TXR. Nature of the series: Resensitization of DU145TXR to paclitaxel by 29 variants (MTT cell viability). The series is classed as cell-based, human. The conditions noted are these: for Fold vs PTX ÷ 29: compared to parental compound 29.

The text below walks through data of patent publication US20220175777A1, “Inhibitors of Multidrug Resistance Transporter P-Glycoprotein” (Southern Methodist University, priority 2014, published 2022).

Sequence of P-gp (P08183 whole entry): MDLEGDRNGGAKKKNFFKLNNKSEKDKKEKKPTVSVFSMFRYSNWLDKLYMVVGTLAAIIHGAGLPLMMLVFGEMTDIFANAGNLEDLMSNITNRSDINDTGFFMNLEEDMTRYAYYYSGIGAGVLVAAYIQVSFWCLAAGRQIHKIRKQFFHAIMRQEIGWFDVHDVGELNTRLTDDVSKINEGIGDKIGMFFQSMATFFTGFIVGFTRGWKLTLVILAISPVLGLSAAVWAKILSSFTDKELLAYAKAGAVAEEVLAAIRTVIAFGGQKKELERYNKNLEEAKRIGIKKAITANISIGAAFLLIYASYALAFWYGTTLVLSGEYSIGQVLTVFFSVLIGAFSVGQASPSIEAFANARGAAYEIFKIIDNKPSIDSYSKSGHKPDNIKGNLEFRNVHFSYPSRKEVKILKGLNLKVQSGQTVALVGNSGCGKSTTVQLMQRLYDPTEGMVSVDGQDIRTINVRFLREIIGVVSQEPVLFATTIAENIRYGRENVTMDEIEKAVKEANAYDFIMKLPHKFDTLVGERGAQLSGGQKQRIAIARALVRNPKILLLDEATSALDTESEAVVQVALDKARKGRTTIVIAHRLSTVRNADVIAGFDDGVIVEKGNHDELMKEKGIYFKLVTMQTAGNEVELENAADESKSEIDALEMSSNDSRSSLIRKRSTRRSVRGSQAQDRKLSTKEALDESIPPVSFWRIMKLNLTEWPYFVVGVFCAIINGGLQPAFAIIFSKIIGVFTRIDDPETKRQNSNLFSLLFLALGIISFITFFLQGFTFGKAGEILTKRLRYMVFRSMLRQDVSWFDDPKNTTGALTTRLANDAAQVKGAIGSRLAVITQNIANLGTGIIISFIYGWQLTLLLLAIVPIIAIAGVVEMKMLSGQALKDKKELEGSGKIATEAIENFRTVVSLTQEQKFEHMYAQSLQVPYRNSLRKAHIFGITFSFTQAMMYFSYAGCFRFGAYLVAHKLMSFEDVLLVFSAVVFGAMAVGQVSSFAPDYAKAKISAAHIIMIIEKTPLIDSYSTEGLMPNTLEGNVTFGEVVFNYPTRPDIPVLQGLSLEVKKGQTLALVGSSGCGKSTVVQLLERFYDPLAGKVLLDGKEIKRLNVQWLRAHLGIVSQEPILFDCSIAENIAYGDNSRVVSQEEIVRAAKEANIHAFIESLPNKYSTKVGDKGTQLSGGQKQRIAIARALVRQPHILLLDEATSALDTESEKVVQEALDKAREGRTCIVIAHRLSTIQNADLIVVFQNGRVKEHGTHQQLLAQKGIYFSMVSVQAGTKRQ
Sequence of Normal Human MDR1 P-glycoprotein (P08183 whole entry): as above

With `Cc1cc(C)c(-c2cc(NC(=O)CSc3n[nH]c(C4CC4)n3)n(-c3ccccc3)n2)cc1C` [SMU-29, 2-[(5-cyclopropyl-1H-1,2,4-triazol-3-yl)sulfanyl]-N-[2-phenyl-5-(2,4,5-trimethylphenyl)pyrazol-3-yl]acetamide], the IC50 (usually the concentration needed to halve the response being measured) in the series with DU145 turned out to be 33.4 ± 0.01 µM; in the series on HFL1 it was 48.2 ± 0.01 µM. Besides, in the series on DU145TXR [1] (50 nM-25 μM inhibitor with 500 nM paclitaxel), the “Effect on paclitaxel sensitivity” value is recorded as “strongly affected the sensitivity”. For the same compound, the EC50 in the series on DU145TXR [1] (in the presence of 500 nM paclitaxel, 48 hours, read-out: PC50, potentiation concentration of inhibitor resulting in 50% reduction in cell viability) worked out at 2.33 ± 0.01 µM. Moreover, the “Intracellular accumulation in the presence versus absence of TQR” value at P-gp is on record as “no significant difference”. Also, the “Transport substrate for P-gp” value at P-gp (not told) is “not a transport substrate”. For the same compound, the Sensitization to paclitaxel in the series on DU145TXR [2] is reported as 800 fold. In addition, the “Basal ATPase (% of DMSO)” value in series [3] (basal) is listed as 88 ± 9 % of DMSO. The “Stimulated ATPase (% of DMSO)” value in series [3] (stimulated) is listed as 62 ± 3 % of DMSO. Moreover, the “Fold vs PTX ÷ 29” value with DU145TXR [4] (3 μM inhibitor), with DU145TXR [4] (5 μM inhibitor), in the series on DU145TXR [4] (7 μM inhibitor) and with DU145TXR [4] (10 μM inhibitor) was 1 Fold throughout. Further, the “Fold vs PTX” value in the series with DU145TXR [4] (3 μM inhibitor, fold improvement of PTX sensitivity vs PTX alone) is reported as 3 Fold; in the series on DU145TXR [4] (5 μM inhibitor, vs PTX alone), 11 Fold; in the series with DU145TXR [4] (7 μM inhibitor, vs PTX alone) it was 36 Fold; in the series on DU145TXR [4] (10 μM inhibitor, vs PTX alone), 101 Fold.
